US20110112299A1, “TETRACYCLIC COMPOUND” (KYOWA HAKKO KIRIN CO., LTD., priority 2008, published 2011)

Biological target: T1, recombinant human progesterone receptor (Homo sapiens, UniProt P06401)
T1 construct: purchased Panvera/Invitrogen P2899 (kit P2895)
T1 sequence (P06401 675-933 limits assumed): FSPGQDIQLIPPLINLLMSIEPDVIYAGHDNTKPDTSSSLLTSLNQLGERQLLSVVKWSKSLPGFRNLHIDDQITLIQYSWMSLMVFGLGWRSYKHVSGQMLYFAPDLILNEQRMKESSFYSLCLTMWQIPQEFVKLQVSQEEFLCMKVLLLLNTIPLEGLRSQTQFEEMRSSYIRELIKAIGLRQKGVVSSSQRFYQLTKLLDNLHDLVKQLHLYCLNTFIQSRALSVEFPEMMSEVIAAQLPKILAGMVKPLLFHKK
Assay: Human progesterone receptor assay (fluorescence polarization, Test Example 2)
Assay type: binding
Settings: at a concentration of 1000 nmol/L
Experimental: In this assay, a fluorescence polarization assay kit (Panvera/Invitrogen, product number: P2895) was used. The recombinant human progesterone receptor (product number: P2899), the Fluoromore (trademark)-labeled progesterone (PL Green, product number: P2897), and the basic buffer solution (product number: P2901) which were used in the assay kit had been stored at −80° C. until used. A buffer solution for the assay was prepared by adding 250 fold dilution of 1 mol/L DTT to the basic buffer solution to give a final concentration of 4 mmol/L.
The assay was performed as follows. The test compound was diluted to 2-fold of the desired concentration with the buffer solution for the assay, and 16 μL of that was added to each well. […] The fluorescence polarization value of each well was measured using a plate reader (PerkinElmer, Fusion or Envision). […] To a positive control group, mifepristone (RU-486) was added so as to give a final concentration of 1 μmol/L. The progesterone receptor binding rate (%) was calculated by the following formula.
Progesterone receptor binding rate (%)=100×[1−(fluorescence polarization value of test compound solution−fluorescence polarization value of positive control solution)/(fluorescence polarization value of negative control solution−fluorescence polarization value of positive control solution)]

## CC/C(=C1\c2cc3cnn(C)c3cc2COc2ccccc21)c1cccc(NS(C)(=O)=O)c1 [Compound 2, (Z)-5-{1-[3-(methanesulfonamide)phenyl]propylidene}-1-methyl-5,11-dihydrobenzo[6,7]oxepino[4,3-f]indazole]
  inhibitory activity (progesterone receptor binding rate): ≤ 10%
